Source: US20080248112A1 (priority 2007, published 2008)
Entries after “also recorded” stand apart in the source; their conditions may differ.

System: glycosylated hemoglobin level (HbAlC)
Test: Clinical study of long term administration of ranolazine: HbA1C in patients having coronary disease
Type: in vivo, human
Excerpt: Baseline is in-hospital visit prior to hospitalization.

COc1ccccc1OCC(O)CN1CCN(CC(=O)Nc2c(C)cccc2C)CC1 (racemic) [Ranolazine, (±)-N-(2,6-dimethylphenyl)-4-[2-hydroxy-3-(2-methoxyphenoxy)-propyl]-1-piperazineacetamide]
Number of patients with HbA1c ≧7% (Diabetes at enrollment, n = 1098, Month 16): 63 | Number of patients with HbA1c ≧7% (No Diabetes at enrollment, n = 2170, Final Visit): 92 | Number of patients with HbA1c ≧7% (No Diabetes at enrollment, n = 2170, Month 4): 78 | Number of patients with HbA1c ≧7% (No Diabetes at enrollment, n = 2170, Month 8): 72 | Number of patients with HbA1c ≧7% (No Diabetes at enrollment, n = 2170, Month 16): 21 | Effect on HbAlc levels (all patients treated, FIGS. 1 and 2): HbAlc lowering effect on all patients treated; also recorded: significantly lowers serum HbAlC levels | Effect on HbAlc levels (diabetic patients, FIG. 2): reduction in the amount of HbAlC levels | Effect on HbAlc levels (non-diabetic patients, FIG. 2): reduction in the amount of HbAlC levels
